Reference: US20240301319A1, “PERFUMING COMPOSITIONS” (FIRMNICH SA, priority 2017, published 2024)
Read-outs that look alike come from different tables or passages of the source.

What was measured:
[1] = Odor threshold and odor value of perfuming compounds (Tables 4 to 10)
[2] = Volatility of perfuming compounds (Tables 4 to 10), with top/middle/bottom note type; type: physicochemical
Procedure, shortened: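 Volatility is expressed in μg/l in air. Top notes are 70,000 to 100 μg/l, middle notes 99 to 50 μg/l, and bottom notes 49 to 0.1 μg/l. Compounds are grouped by olfactive family: watery, green, fruity, citrus, sweet, gourmand and woody.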

[3] = Table 4, watery note, equals volatility divided by odor threshold
[4] = Table 7, citrus note, equals volatility divided by odor threshold
[5] = Table 4, watery note, top, middle or bottom note
[6] = Table 7, citrus note, top, middle or bottom note
[7] = Table 6, perfuming compounds having a fruity note
[8] = Table 8, perfuming compounds having a sweet note
[9] = perfuming compounds having a green note
[10] = Table 6, perfuming compounds having a fruity note, note type by volatility
[11] = Table 8, perfuming compounds having a sweet note, note type by volatility
[12] = Table 9, perfuming compounds having a gourmand note, note type by volatility
[13] = note type (Top/Middle/Bottom) by volatility, perfuming compounds having a green note
[14] = Table 10, perfuming compounds having a woody note, note type by volatility

3-(3,3-dimethyl-2,3-dihydro-1H-inden-5-yl)propanal (A) + 3-(1,1-dimethyl-2,3-dihydro-1H-inden-4-yl)propanal (B) + 3-(1,1-dimethyl-2,3-dihydro-1H-inden-5-yl)propanal (C)
Odor Threshold (μg/l air) ([1]; Table 4, watery note): 4.00E−03 μg/l air
Odor Value [1, 3]: 3.42E+03
Odor Threshold (μg/l air) ([1]; Table 7, citrus note): 4.00E−03 μg/l air
Odor Value [1, 4]: 3.42E+03
Volatility (μg/l air) ([2]; Table 4, watery note): 13.68 μg/l air
Type [2, 5]: bottom (perfuming compounds having a volatility ranging from 49 to 0.1 μg/l in air are referred to as “bottom notes”)
Volatility (μg/l air) ([2]; Table 7, citrus note): 13.68 μg/l air
Type [2, 6]: Bottom

C=CCOC(=O)CCC1CCCCC1 [ALLYL 3-CYCLOHEXYLPROPANOATE]
Odor Threshold [1, 7]: 7.96E−03 μg/l air
Odor Value [1, 7]: 9.53E+03
Odor Threshold [1, 8]: 7.96E−03 μg/l air
Odor Value [1, 8]: 9.53E+03
Odor Threshold ([1]; Table 9, gourmand note): 7.96E−03 μg/l air
Odor Threshold (μg/l air) [1, 9]: 7.96E−03 μg/l air
Volatility [2, 7]: 75.80 μg/l air
Type [2, 10]: Middle
Volatility [2, 8]: 75.80 μg/l air
Type [2, 11]: Middle
Volatility ([2]; Table 9, gourmand note): 75.80 μg/l air
Type [2, 12]: Middle
Type [2, 13]: Middle
Volatility (μg/l air) [2, 9]: 75.80 μg/l air

CC1COCc2cc3c(cc21)C(C)(C)C(C)C3(C)C (racemic)
Odor Threshold [1, 7]: 2.62E−04 μg/l air
Odor Value [1, 7]: 6.08E+03
Volatility [2, 7]: 1.59 μg/l air
Type [2, 10]: Bottom

3-(3,3-dimethyl-2,3-dihydro-1H-inden-5-yl)propanal (A) + 3-(1,1-dimethyl-2,3-dihydro-1H-inden-5-yl)propanal (B)
Odor Threshold (μg/l air) ([1]; Table 4, watery note): 1.32E−05 μg/l air
Odor Value [1, 3]: 1.04E+06
Volatility (μg/l air) ([2]; Table 4, watery note): 13.73 μg/l air
Type [2, 5]: bottom (perfuming compounds having a volatility ranging from 49 to 0.1 μg/l in air are referred to as “bottom notes”)

COC(C)(C)[C@H]1CC=C(C)CC1
Odor Threshold (μg/l air) [1, 9]: 1.99E−01 μg/l air
Type [2, 13]: Top
Volatility (μg/l air) [2, 9]: 993.39 μg/l air

CC(C)OCCc1ccccc1 [(2-ISOPROPOXYETHYL)BENZENE]
Odor Threshold (μg/l air) [1, 9]: 1.65E−03 μg/l air
Volatility (μg/l air) [2]: 1714.82 μg/l air
Type [2, 13]: Top

(1S,4S,9S,10R,13R)-5,5,9,13-tetramethyl-14,16-dioxatetracyclo[11.2.1.0~1,10~.0~4,9~]hexadecane (A) + (1R,4S,9S,10R,13S)-5,5,9,13-tetramethyl-14,16-dioxatetracyclo[11.2.1.0~1,10~.0~4,9~]hexadecane (B)
Odor Threshold (μg/l air) ([1]; Table 4, watery note): 4.36E−04 μg/l air
Odor Value [1, 3]: 1.55E+04
Volatility (μg/l air) ([2]; Table 4, watery note): 6.77 μg/l air
Type [2, 5]: bottom (perfuming compounds having a volatility ranging from 49 to 0.1 μg/l in air are referred to as “bottom notes”)

C/C=C/c1ccc(OC)cc1 [1-methoxy-4-[(1E)-1-propen-1-yl]benzene]
Odor Threshold [1, 8]: 1.23E−03 μg/l air
Odor Value [1, 8]: 1.51E+05
Odor Threshold ([1]; Table 9, gourmand note): 1.23E−03 μg/l air
Volatility [2, 7]: 184.60 μg/l air
Type [2, 10]: TOP (perfuming compounds having a volatility ranging from 70,000 to 100 μg/l in air are referred to as “top notes”)
Volatility [2, 8]: 184.60 μg/l air
Type [2, 11]: Top
Volatility ([2]; Table 9, gourmand note): 184.60 μg/l air
Type [2, 12]: Top

CCCCCCCC(=O)OCC [ethyl octanoate]
Odor Threshold (μg/l air) [1, 9]: 5.30E−03 μg/l air
Type [2, 13]: Top
Volatility (μg/l air) [2, 9]: 800.05 μg/l air

CC1CCCC2(C)CCCCC12O (racemic)
Odor Threshold (μg/l air) [1, 9]: 5.32E−06 μg/l air
Type [2, 13]: Top
Volatility (μg/l air) [2, 9]: 330.48 μg/l air

CC1=CCC(CCC(C)C(C)O)C1(C)C (racemic)
Odor Threshold ([1]; Table 10, woody note): 1.52E−03 μg/l air
Type [2, 14]: Bottom
Volatility ([2]; Table 10, woody note): 5.22 μg/l air

CCCCCCCCCC(C)C=O (racemic) [(+−)-2-methylundecanal]
Odor Threshold (μg/l air) ([1]; Table 4, watery note): 7.24E−05 μg/l air
Odor Value [1, 3]: 1.04E+06
Volatility (μg/l air) ([2]; Table 4, watery note): 75.55 μg/l air
Type [2, 5]: middle (perfuming compounds having a volatility ranging from 99 to 50 μg/l in air are referred to as “middle notes”)

COc1cc(C)ccc1O [2-METHOXY-4-METHYLPHENOL]
Odor Threshold [1, 8]: 6.96E−04 μg/l air
Odor Value [1, 8]: 4.41E+05
Volatility [2, 8]: 306.61 μg/l air
Type [2, 11]: Top

O=C1CCC2(CCCCC2)O1 [1-oxaspiro[4.5]decan-2-one]
Odor Threshold ([1]; Table 9, gourmand note): 2.90E−04 μg/l air
Volatility ([2]; Table 9, gourmand note): 62.86 μg/l air
Type [2, 12]: Middle

CC/C=C\CCOC(=O)C/C=C\CC [(3Z)-3-hexen-1-yl (3Z)-3-hexenoate]
Odor Threshold [1, 8]: 5.17E−02 μg/l air
Odor Value [1, 8]: 4.08E+03
Odor Threshold ([1]; Table 9, gourmand note): 5.17E−02 μg/l air
Odor Threshold (μg/l air) [1, 9]: 5.17E−02 μg/l air
Volatility [2, 7]: 210.68 μg/l air
Type [2, 10]: TOP (perfuming compounds having a volatility ranging from 70,000 to 100 μg/l in air are referred to as “top notes”)
Volatility [2, 8]: 210.68 μg/l air
Type [2, 11]: Top
Volatility ([2]; Table 9, gourmand note): 210.68 μg/l air
Type [2, 12]: Top
Type [2, 13]: Top
Volatility (μg/l air) [2, 9]: 210.68 μg/l air

CC/C=C\CCCCC=O [(Z)-6-NONENAL]
Odor Threshold (μg/l air) [1, 9]: 2.91E−05 μg/l air
Type [2, 13]: Top
Volatility (μg/l air) [2, 9]: 2431.73 μg/l air

CC1(C)CC=C(CCC=O)CC1
Odor Threshold (μg/l air) [1, 9]: 2.06E−03 μg/l air
Type [2, 13]: Top
Volatility (μg/l air) [2, 9]: 417.92 μg/l air

CC(=O)OC/C=C/c1ccccc1 [(E)-3-PHENYL-2-PROPENYL ACETATE]
Odor Threshold [1, 7]: 1.87E−04 μg/l air
Odor Value [1, 7]: 1.10E+05
Volatility [2, 7]: 20.47 μg/l air
Type [2, 10]: Bottom

9-ETHYLIDENE-3-OXATRICYCLO[6.2.1.0(2,7)]UNDECAN-4-ONE (A) + 10-ETHYLIDENE-3-OXATRICYCLO[6.2.1.0(2,7)] . . . (B)
Odor Threshold (μg/l air) ([1]; Table 7, citrus note): 1.42E−04 μg/l air
Odor Value [1, 4]: 1.48E+04
Volatility (μg/l air) ([2]; Table 7, citrus note): 2.10 μg/l air
Type [2, 6]: Bottom

CCCC1CCC(=O)O1 (racemic) [(+−)-4-HEPTANOLIDE]
Odor Threshold [1, 8]: 5.18E−04 μg/l air
Odor Value [1, 8]: 5.70E+05
Volatility [2, 8]: 295.34 μg/l air
Type [2, 11]: Top

CCOCOC1CCCCCCCCCCC1 [(ETHOXYMETHOXY)CYCLODODECANE]
Odor Threshold ([1]; Table 10, woody note): 8.90E−02 μg/l air
Type [2, 14]: Bottom
Volatility ([2]; Table 10, woody note): 6.63 μg/l air

CCCCCC/C(C=O)=C\c1ccccc1 [(2E)-2-benzylideneoctanal]
Odor Threshold [1, 7]: 1.91E−03 μg/l air
Odor Value [1, 7]: 6.01E+02
Odor Threshold (μg/l air) [1, 9]: 1.91E−03 μg/l air
Volatility [2, 7]: 1.15 μg/l air
Type [2, 10]: Bottom
Type [2, 13]: Bottom
Volatility (μg/l air) [2, 9]: 1.15 μg/l air

CC(C)CCCC(C)CCO (racemic)
Odor Threshold (μg/l air) ([1]; Table 7, citrus note): 4.59E−02 μg/l air
Odor Value [1, 4]: 1.67E+03
Volatility (μg/l air) ([2]; Table 7, citrus note): 76.57 μg/l air
Type [2, 6]: Middle

CC(=O)OC1CCC2C(C)(C)CCCC2(C)C1 (stereo not shown) [5,5,8a-trimethyldecahydro-2-naphthalenyl acetate]
Odor Threshold ([1]; Table 10, woody note): 4.19E−04 μg/l air
Type [2, 14]: Bottom
Volatility ([2]; Table 10, woody note): 14.41 μg/l air

CCCCCCC=O [HEPTANAL]
Odor Threshold (μg/l air) [1, 9]: 2.03E−03 μg/l air
Type [2, 13]: Top
Volatility (μg/l air) [2, 9]: 22184.00 μg/l air

CCCC(S)CCOC (racemic) [(+−)-1-METHOXY-3-HEXANETHIOL]
Odor Threshold (μg/l air) [1, 9]: 1.92E−07 μg/l air
Type [2, 13]: Top
Volatility (μg/l air) [2, 9]: 2534.77 μg/l air

CCCCCCCCOC(C)=O [octyl acetate]
Odor Threshold (μg/l air) ([1]; Table 7, citrus note): 1.76E−01 μg/l air
Odor Value [1, 4]: 3.78E+03
Volatility [2, 7]: 666.51 μg/l air
Type [2, 10]: TOP (perfuming compounds having a volatility ranging from 70,000 to 100 μg/l in air are referred to as “top notes”)
Volatility (μg/l air) ([2]; Table 7, citrus note): 666.51 μg/l air
Type [2, 6]: Top

CC(=O)O[C@@H]1CC2CC[C@]1(C)C2(C)C
Odor Threshold ([1]; Table 10, woody note): 4.46E−02 μg/l air
Type [2, 14]: Top
Volatility ([2]; Table 10, woody note): 735.37 μg/l air

CCCCCC1CCCC(=O)O1 (racemic) [(+−)-6-pentyltetrahydro-2H-pyran-2-one]
Odor Threshold [1, 7]: 3.72E−05 μg/l air
Odor Value [1, 7]: 2.58E+05
Odor Threshold [1, 8]: 3.72E−05 μg/l air
Odor Value [1, 8]: 2.58E+05
Odor Threshold ([1]; Table 9, gourmand note): 3.72E−05 μg/l air
Volatility [2, 7]: 9.61 μg/l air
Type [2, 10]: Bottom
Volatility [2, 8]: 9.61 μg/l air
Type [2, 11]: Bottom
Volatility ([2]; Table 9, gourmand note): 9.61 μg/l air
Type [2, 12]: Bottom

CCCCC1CCCC(=O)O1 (stereo not shown) [5-NONANOLIDE]
Odor Threshold [1, 7]: 1.16E−05 μg/l air
Odor Value [1, 7]: 2.06E+06
Odor Threshold [1, 8]: 1.16E−05 μg/l air
Odor Value [1, 8]: 2.06E+06
Odor Threshold ([1]; Table 9, gourmand note): 1.16E−05 μg/l air
Volatility [2, 7]: 23.87 μg/l air
Type [2, 10]: Bottom
Volatility [2, 8]: 23.87 μg/l air
Type [2, 11]: Bottom
Volatility ([2]; Table 9, gourmand note): 23.87 μg/l air
Type [2, 12]: Bottom

(Z)-3,7-DIMETHYL-1,6-NONADIEN-3-OL (A) + (E)-3,7-DIMETHYL-1,6-NONADIEN-3-OL (B)
Odor Threshold (μg/l air) ([1]; Table 7, citrus note): 1.38E−03 μg/l air
Odor Value [1, 4]: 2.05E+05
Volatility (μg/l air) ([2]; Table 7, citrus note): 283.43 μg/l air
Type [2, 6]: Top

CCCCCCCC=O [OCTANAL]
Odor Threshold (μg/l air) [1, 9]: 2.77E−04 μg/l air
Type [2, 13]: Top
Volatility (μg/l air) [2, 9]: 4147.61 μg/l air
